Experimental data as given in ChEMBL document CHEMBL1138324, “Synthesis and nicotinic acetylcholine receptor binding properties of bridged and fused ring analogues of epibatidine” (J Med Chem, 2007).

Legend:
[1] = biological target: T1, Neuronal acetylcholine receptor; alpha4/beta2 (Homo sapiens, UniProt P17787+P43681); test: Displacement of [3H]epibatidine from alpha-4-beta-2 nAChR at 31.6 uM; format: protein-complex assay
[2] = biological target: Neuronal acetylcholine receptor subunit alpha-7 (Homo sapiens) (UniProt P36544); test: Displacement of [125I]iodoMLA from alpha-7 nAChR at 50 nM
[3] = biological target: T1, Neuronal acetylcholine receptor; alpha4/beta2; test: Displacement of [3H]epibatidine from alpha-4-beta-2 nAChR; format: protein-complex assay
[4] = system: Mus musculus; test: Inhibition of nicotine-induced hypothermia in mouse assessed as change in body temperature at 0.5 ug/kg, sc; format: functional; set-up: scale not given: the % may be the effect or the level left
[5] = organism: Mus musculus; test: Effect on hypothermia in mouse assessed as change in body temperature; format: functional
[6] = system: Mus musculus; test: Inhibition of nicotine-induced antinociceptive effect in sc dosed mouse by tail flick test; format: functional
[7] = organism: Mus musculus; test: Antinociceptive effect in mouse by tail flick test; format: functional
[8] = system: Mus musculus; test: Inhibition of nicotine-induced antinociceptive effect in mouse at 0.5 ug/kg, sc by hot plate test; format: functional
[9] = organism: Mus musculus; test: Antinociceptive effect in mouse by hot plate test; format: functional
[10] = system: Mus musculus; test: Antinociceptive effect in mouse at 10 mg/kg by tail flick test; format: functional
[11] = system: Mus musculus; test: Antinociceptive effect in mouse at 10 mg/kg by hot plate test; format: functional
[12] = system: Mus musculus; test: Effect on hypothermia in mouse assessed as change in body temperature at 10 mg/kg; format: functional
[13] = system: Mus musculus; test: Inhibition of nicotine-induced hypothermia in mouse assessed as change in body temperature at 15000 ug/kg, sc; format: functional; set-up: scale not given: the % may be the effect or the level left
[14] = system: Mus musculus; test: Inhibition of nicotine-induced antinociceptive effect in mouse at 15000 ug/kg, sc by hot plate test; format: functional
[15] = system: Mus musculus; test: Inhibition of nicotine-induced hypothermia in mouse assessed as change in body temperature at 5000 ug/kg, sc; format: functional; set-up: scale not given: the % may be the effect or the level left
[16] = system: Mus musculus; test: Inhibition of nicotine-induced antinociceptive effect in sc dosed mouse by hot plate test; format: functional

Neuronal acetylcholine receptor subunit alpha-7 (Homo sapiens), sequence (P36544 whole entry): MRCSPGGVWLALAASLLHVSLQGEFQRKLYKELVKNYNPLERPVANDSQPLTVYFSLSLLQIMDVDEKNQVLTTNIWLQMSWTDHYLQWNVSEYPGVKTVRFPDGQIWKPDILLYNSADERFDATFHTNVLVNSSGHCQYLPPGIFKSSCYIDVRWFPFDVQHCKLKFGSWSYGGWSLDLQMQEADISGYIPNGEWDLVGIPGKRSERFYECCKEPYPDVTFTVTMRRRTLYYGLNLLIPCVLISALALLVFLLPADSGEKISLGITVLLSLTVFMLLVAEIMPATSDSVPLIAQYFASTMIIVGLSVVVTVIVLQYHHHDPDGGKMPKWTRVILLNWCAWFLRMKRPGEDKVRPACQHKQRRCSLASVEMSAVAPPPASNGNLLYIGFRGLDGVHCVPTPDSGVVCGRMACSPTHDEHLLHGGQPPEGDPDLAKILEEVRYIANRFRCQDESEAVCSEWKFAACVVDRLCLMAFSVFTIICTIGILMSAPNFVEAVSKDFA
T1 sequence (P17787 whole entry): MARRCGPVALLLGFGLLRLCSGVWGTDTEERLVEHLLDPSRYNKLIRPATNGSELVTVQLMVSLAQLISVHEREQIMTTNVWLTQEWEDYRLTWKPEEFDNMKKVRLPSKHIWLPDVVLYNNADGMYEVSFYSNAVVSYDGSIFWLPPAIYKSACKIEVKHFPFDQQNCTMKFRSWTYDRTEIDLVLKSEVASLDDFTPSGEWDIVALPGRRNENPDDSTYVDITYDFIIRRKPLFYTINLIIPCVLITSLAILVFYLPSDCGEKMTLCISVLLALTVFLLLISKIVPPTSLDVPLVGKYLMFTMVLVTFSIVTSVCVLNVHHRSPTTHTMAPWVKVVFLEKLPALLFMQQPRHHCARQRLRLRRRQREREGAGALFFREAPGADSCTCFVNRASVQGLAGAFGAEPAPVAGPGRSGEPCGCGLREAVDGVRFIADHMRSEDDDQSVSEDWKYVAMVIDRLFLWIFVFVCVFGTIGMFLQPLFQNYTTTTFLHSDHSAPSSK
T1 sequence (P43681 whole entry): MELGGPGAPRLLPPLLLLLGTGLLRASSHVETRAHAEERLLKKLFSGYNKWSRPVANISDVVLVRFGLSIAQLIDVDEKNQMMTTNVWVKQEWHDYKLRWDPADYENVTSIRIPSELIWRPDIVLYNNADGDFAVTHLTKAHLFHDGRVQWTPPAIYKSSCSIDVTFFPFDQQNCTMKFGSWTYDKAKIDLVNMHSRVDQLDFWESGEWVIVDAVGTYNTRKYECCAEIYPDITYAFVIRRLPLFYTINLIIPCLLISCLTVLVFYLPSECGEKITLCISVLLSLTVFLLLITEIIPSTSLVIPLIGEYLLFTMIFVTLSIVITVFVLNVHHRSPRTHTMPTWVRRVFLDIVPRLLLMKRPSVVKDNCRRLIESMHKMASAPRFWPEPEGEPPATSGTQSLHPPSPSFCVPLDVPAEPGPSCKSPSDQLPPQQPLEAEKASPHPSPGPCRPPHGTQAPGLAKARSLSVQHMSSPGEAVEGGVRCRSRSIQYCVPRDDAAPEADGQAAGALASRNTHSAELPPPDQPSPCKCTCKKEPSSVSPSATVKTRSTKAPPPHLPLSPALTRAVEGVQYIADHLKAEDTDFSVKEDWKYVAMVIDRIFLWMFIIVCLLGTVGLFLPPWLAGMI

SMILES: c1cc2c(cn1)C1CCC2N1 (stereo not drawn)
- Activity [1]: < 15%
- Activity [2]: 0%

SMILES: Fc1ncc(C2CC3NC2c2ccccc23)cc1-c1ccccc1 (stereo not drawn)
- Ki [3]: 128 nM
- Activity [2]: 0%

SMILES: C1=CC2NC1c1ccncc12 (stereo not drawn)
- Activity [1]: < 15%
- Activity [2]: 0%

SMILES: CN1C2CCC1C(c1ccc(Cl)nc1)C2 (stereo not drawn)
- Activity [4]: 0%
- Ki [3]: 0.038 nM
- ED50 [5]: 3 µg/kg
- AD50 [6]: 0.048 µg/kg
- ED50 [7]: 4.4 µg/kg
- inhibition in vivo at 0.0005 mg/kg [8]: 23%
- ED50 [9]: 3 µg/kg

SMILES: Clc1ccc(C2CC3NC2c2ccccc23)cn1 (stereo not drawn)
- Ki [3]: 65.2 nM
- Activity [2]: 0%

SMILES: Cc1nc(Cl)ccc1C1CC2CCC1N2 (stereo not drawn)
- Activity [10]: 1%
- Activity [11]: 14%
- Activity [12]: 0%
- Ki [3]: 256 nM
- Activity [13]: 0%
- AD50 [6]: 9000 µg/kg
- inhibition in vivo at 15 mg/kg [14]: 10%

SMILES: Cc1cc(Cl)ncc1C1CC2CCC1N2 (stereo not drawn)
- Activity [10]: 4%
- Activity [11]: 20%
- Activity [12]: 0%
- Activity [15]: 0%
- AD50 [6]: 400 µg/kg
- AD50 [16]: 1200 µg/kg

SMILES: Clc1cc2c(cn1)C1CC3CCC1N3C2 (stereo not drawn)
- Activity [10]: 2%
- Activity [11]: 18%
- Activity [12]: 0%
- Ki [3]: 3330 nM

SMILES: Nc1ccc2c(n1)CN1C3CCC1C2C3 (stereo not drawn)
- Activity [10]: 4%
- Activity [11]: 10%
- Activity [12]: 0%
- Ki [3]: 7370 nM

SMILES: Clc1ccc([C@@H]2C[C@H]3CC[C@@H]2N3)cn1 [(+)-EPIBATIDINE]
- ED50 [5]: 4 µg/kg
- ED50 [7]: 6 µg/kg
- ED50 [9]: 4 µg/kg

SMILES: Clc1ccc2c(n1)CN1C3CCC1C2C3 (stereo not drawn)
- Activity [10]: 3%
- Activity [11]: 17%
- Activity [12]: 0%

SMILES: Nc1cc2c(cn1)C1CC3CCC1N3C2 (stereo not drawn)
- Activity [10]: 2%
- Activity [11]: 16%
- Activity [12]: 0%
- Ki [3]: 12400 nM

SMILES: c1cnc2c(c1)C1CCC2N1 (stereo not drawn)
- Activity [1]: < 15%
- Activity [2]: 0%
